Source: PMC6715681, “A high-throughput screen to identify novel synthetic lethal compounds for the treatment of E-cadherin-deficient cells” (Scientific Reports, 2019)
Marks after values point to notes of the source that are not given here.

Legend:
[1] = test system: MCF10A CDH1^−/− cells; test: 11-point dose-response screen, cell titre blue (CTB) viability; format: cell-based, human; details: for EC50: Homo sapiens, MCF-10A; for Differential at 20 μM: MCF10A WT – MCF10A CDH1−/− POC at 20 μM
Protocol: (§1) The 11-point dose-response screen evaluated a concentration range from 0.02 µM to 20 µM for both isogenic cell lines in duplicate biological replicates (Fig. 4). One limitation to metabolism-based cellular assays is that a change in read out (fluorescence, luminescence or absorbance) may not necessarily be caused by cell death and could instead result from a cessation of proliferation due to senescence or inhibited mitochondrial respiration. For this reason, a direct measurement of cell counts using cellular imaging of nuclei stained with Hoechst 33342 was also included at the 11-point screening stage. For the CTB 11-point screen all plates had acceptable Z’ values above 0.4, with the second biological replicate having 70% above 0.6 (Fig. 4A). The Z’ values for the high-content imaging (HCI) 11-point screen plates were above 0.4 for MCF10A WT, except one plate from biological replicate two with 0.396 (Fig. 4B). However, for MCF10A CDH1^−/− HCI data, only four plates were above a Z’ of 0.4 and the mean Z’ was 0.32 compared to a mean of 0.51 for MCF10A WT. A further quality metric known as the strictly standardized mean difference (SSMD)[40] is a less conservative approach for QC and a cut-off of >3 is generally used. The mean SSMD value was 7.04 for MCF10A WT and 5.27 for MCF10A CDH1^−/− plates and indicates the MCF10A CDH1^−/− HCI data was acceptable[41]. There was a good correlation between the top hits from the HCI and CTB 11-point screening with an overlap of 31 / 40 for the top 40 compounds selected from the eventual hit selection strategies.
(§2) MCF10A WT and MCF10A CDH1^−/− cells were seeded into Corning black walled, clear bottom 384-well plates (assay plates) using a multidrop 384 reagent dispenser (Thermo Fisher Scientific) and a total volume of 50 μL per well.
(§3) As we have shown MCF10A CDH1^−/− cells have a prolonged lag to log phase growth of around 24 hours, in order to achieve a similar confluence at 72 hours post seeding MCF10A WT and MCF10A CDH1^−/− cell lines were seeded at 600 cells/well and 800 cells/well, respectively. Following seeding, plates were left for one hour at RT without stacking[46] and then centrifuged at 500 × g (RCF) for one minute. Plates were then transferred to an incubator at 37 °C and 5% CO2. At 24 hours post seeding, the MiniTrak robotic liquid handling system (Perkin Elmer) was used to transfer 352 compounds per 384-well library plate to the first 22 columns of a 384-well assay plate containing cells to achieve a 10 μM final compound concentration for the pilot, primary and single-point confirmation screens. For the 11-point dose-response screen, compounds were added to columns 1–22, but excluding edge rows A and P of the library plate to reduce edge-effects (Supplementary Fig. 2). The controls of DMSO (0.2% v/v), doxorubicin (EC80) and entinostat (EC50) were added into columns 23–24 of each assay plate (Supplementary Table 1). Cell titre blue[47] was made in-house in sterile PBS from 597 μM resazurin, 78 μM methylene blue, 1 mM potassium hexacyanoferrate (III) and 1 mM potassium hexacyanoferrate (II) trihydrate. At 69 hours post seeding, 16.7% v/v CTB was added to plates and they were incubated at 37 °C for 3 hours (Supplementary Fig. 1). At 72 hours post seeding, plates were removed from the incubator and left for 30 minutes at RT to equalise the temperature across all wells of the plates and reduce fluorescence-based edge effects before reading on an EnVision (PerkinElmer) at 550 nm excitation and 590 nm emission to quantify cell viability.
(§4) Supplementary Table 1. Killing control and SL control effective concentrations.
(§5) Doxorubicin EC80 0.3 µM 0.4 µM
(§6) MCF10A WT cells were seeded at 600/well and MCF10A CDH1-/- cells at 800/well in 384-well plates. Drugs
(§7) were added at 24 hours post seeding and CTB was used as an end-point assay. Concentrations were normalized

[2] = test system: MCF10A WT cells; test: as above; format: cell-based, human; details: for EC50 / activity at 20 µM: Homo sapiens, MCF-10A; for activity at 20 µM: viability of WT cells at highest concentration 20 μM, read-out: MCF10A WT POC at 20 μM
Protocol: as §1, §2, §3, §4, §5, §6, §7

[3] = test system: MCF10A WT and MCF10A CDH1^−/− cells; test: Single-point confirmation screen (10 μM, CTB, 384-well), viability differential between isogenic lines; format: cell-based, human; details: averaged between three biological replicates, Supplementary Table 2
Protocol: In the single-point confirmation screen, compounds that preferentially harm MCF10A CDH1^−/− cells compared to the wild-type cells were now identified. Three biological replicates were performed for each of the isogenic cell lines at a single-point (10 μM) in 384-well plates. All assay plates had acceptable Z’ values above 0.4 and 23 out of 48 plates had values above 0.6. The POC R^2 correlation between the three biological replicates for the two isogenic cell lines were all above 0.8 (data not shown). A cell viability differential of ‘MCF10A WT POC – MCF10A CDH1^−/− POC’ was used to select hits. An arbitrary threshold for the mean differential of >8.5% was chosen in order to maximize the number of hits being screened in the subsequent stages and to reduce false negatives.
To incorporate a measure of the variability between replicates of the screen into the hit selection process, a further requirement was included of a minimum of 2/3 biological replicates having viability differentials >8.5%. This removed a further 52 compounds shown in blue with only one out of three biological replicates crossing the Y = X-8.5 line independent of the mean. In total, 256 compounds were above the hit selection threshold, thereby preferentially killing E-cadherin negative cells. The mean POC differential of the 256 hits was 17.6% +/− 7.1 (+/−SD), with the highest being 48% for SLEC-1 (Synthetic Lethal E-Cadherin compound 1). […] The resulting 256 SL compounds were then assayed in an 11-point screen for EC50 determination.
as §2
As we have shown MCF10A CDH1^−/− cells have a prolonged lag to log phase growth of around 24 hours, in order to achieve a similar confluence at 72 hours post seeding MCF10A WT and MCF10A CDH1^−/− cell lines were seeded at 600 cells/well and 800 cells/well, respectively. […] At 72 hours post seeding, plates were removed from the incubator and left for 30 minutes at RT to equalise the temperature across all wells of the plates and reduce fluorescence-based edge effects before reading on an EnVision (PerkinElmer) at 550 nm excitation and 590 nm emission to quantify cell viability.
The coRFU values were then used to calculate the normalized readouts of percent of controls (Eq. 3) and the robust Z score (Eqs 4,5), where doxorubicin refers to an EC80 dose and DMSO was 0.2% v/v.3 coPOC=100×(SamplecoRFU−x¯doxorubicincoRFU)/(x¯DMSOcoRFU−x¯doxorubicincoRFU) 4 MAD=median([…]) 5 CorrectedrobustZscore=(SamplecoRFU−platemediancoRFU)/MAD

[4] = test system: MCF10A WT cells; test: 11-point dose-response screen, high-content imaging (HCI) of Hoechst 33342 nuclei; format: cell-based; details: Homo sapiens, MCF-10A, 11-point screen
Protocol: as §1
(§8) A direct measurement of cell counts using cellular imaging of nuclei was also included at the 11-point screening stage. Plates were fixed, washed and stained using an ELx405 Select deep well washer (BioTek). Media was first aspirated leaving 10 μL/well, then 4% w/v PFA was added and plates left for 15 minutes at RT. Plates were then washed twice with PBS-T, before aspirating all permeabilization buffer and adding Hoechst 33342 (1 μg/mL final) in PBS. Plates were then stored in the dark at 4 °C, until being imaged on a BD Pathway 855. Two 10x images per well were taken and cell counts enumerated using CellProfiler[48].

[5] = test system: MCF10A CDH1^−/− cells; test: as above; format: cell-based, human; details: Homo sapiens, MCF-10A; 11-point screen, HCI
Protocol: as §1, §8

[6] = test system: MCF10A WT cells; test: Medium-throughput validation in 96-well plates, Hoechst-33342 nuclei counts (CellProfiler); format: cell-based; details: Homo sapiens, MCF-10A, 96-well validation, at least five concentration points
Protocol: (§9) Cells were seeded into each well of Corning’s black walled, clear bottom 96-well plates with a total volume of 100 μL per well. Edge wells were excluded. Both isogenic cell lines were seeded into the same plate to mitigate plate-to-plate variation. Plates for real-time analysis were transferred to the xCELLigence platform (ACEA Biosciences, USA) or the IncuCyte FLR imaging system (Essen BioScience, USA) as previously described.
(§10) Seventy-two hours post seeding (or 48 hours post compound addition), plates were assayed for cell viability using a one-step cocktail of PFA (0.25% v/v), saponin (0.075% w/v) and Hoechst 33342 (1 μg/ml final) as described previously. CellProfiler was used to enumerate cell counts as previously described.

[7] = test system: MCF10A CDH1^−/− cells; test: as above; format: cell-based, human; details: for EC50 ratio (MCF10A WT/MCF10A CDH1^−/−) / EC50: 96-well validation; for EC50: Homo sapiens, MCF-10A, Hoechst nuclei counts, at least five concentration points; for Differential at 5 µM (%): normalized cell counts MCF10A WT – MCF10A CDH1^−/−, 96-well, 48 h post compound addition
Protocol: as §9, §10

[8] = killing control, 384-well, CTB, 11-point curve, 72 hrs post seeding
[9] = 11-point screen (0.02–20 µM), CTB values, averaged between two biological replicates, Supplementary Table 2, read-out: MCF10A CDH1 -/- EC50
[10] = 11-point screen (0.02–20 µM), CTB values, two biological replicates, for EC50 values > 20, a value of 20 was used, read-out: MCF10A WT EC50
[11] = 11-point screen, CTB, read-out: MCF10A CDH1^-/- CTB EC50

| Compound | Differential at 1-pt [3] | Differential at 20 μM ([1]; 11-point screen) | EC50 [1, 9] [µM] | EC50 [2, 10] [µM] | activity at 20 µM ([2]; 11-point screen) [%] | EC50 [1, 11] [µM] | EC50 [4] [µM] | EC50 [5] [µM] | EC50 [6] [µM] | EC50 ratio (MCF10A WT/MCF10A CDH1^−/−) [7] | EC50 [7] [µM] | Differential at 5 µM (%) [7] | also measured |
| --- | --- | --- | --- | --- | --- | --- | --- | --- | --- | --- | --- | --- | --- |
| COc1cccc2c1C(=O)c1c(O)c3c(c(O)c1C2=O)C[C@@](O)(C(=O)CO)C[C@@H]3O[C@H]1C[C@H](N)[C@H](O)[C@H](C)O1 [Doxorubicin, doxorubicin, reference compound] |  |  |  |  |  |  |  |  |  |  |  |  | EC80, MCF10A CDH1-/- [1, 8]: 0.4 µM; EC80, MCF10A WT [2, 8]: 0.3 µM |
| Nc1ccccc1NC(=O)c1ccc(CNC(=O)OCc2cccnc2)cc1 [Entinostat, entinostat, reference compound] |  |  |  |  |  |  |  |  |  |  |  |  | EC50 ([1]; SL control, 384-well, CTB, 11-point curve, 72 hrs post seeding, read-out: EC50, MCF10A CDH1-/-): 2.4 µM; EC50 ([2]; SL control, 384-well, CTB, 11-point curve, 72 hrs post seeding, read-out: EC50, MCF10A WT): 3.2 µM |
| COc1ccc2nccc(Nc3cccc(C(C)=O)c3)c2c1 [SLEC-2] | 39.99 | 49.66 | 3.21 | 17.7 | 42.3 |  |  |  |  |  |  |  |  |
| COc1cc(Cl)c(C)cc1NC(=O)c1ccc(CN2CCCC2)cc1 [SLEC-6] |  |  |  |  |  | 17.3 | > 20 | 7.79 | 22.6 | 1.56 | 14.5 | 20.78* % | EC50 ([2]; 11-point screen, CTB, read-out: MCF10A WT CTB EC50): > 20 µM |
| COc1ccc2nc(C)cc(NCC(=O)Nc3cccc(C)c3C)c2c1 [SLEC-12] | 13.92 | 65.85 |  | 19.4 | 45 | 3.06 | 12.6 | 2.45 | 13 | 1.45 | 8.98 | 11.47% | EC50 ratio between MCF10A WT and MCF10A CDH1^−/− cells ([1]; 11-point screen, value corresponds to the CTB EC50s of Fig. 5): 6.34 fold change |
| CCOc1ccc2nc(C)cc(SCC(O)C(=O)O)c2c1 (stereo not shown) [SLEC-20] | 23.81 | 70.17 | 9.38 | > 20 | 92.9 |  |  |  |  |  |  |  |  |
